Test results published in patent US12509437B2, “Substituted thiophene carboxamides and derivatives thereof as microbicides” (Bayer Aktiengesellschaft, priority 2019, dated 2025).

Experiment: LogP by HPLC on reversed phase columns (EEC directive 79/831 Annex V.A8)
Format: physicochemical
Description: [table] If more than one Log P value is available within the same method, all the values are given and separated by “+”. Calibration was done with straight-chain alkan2-ones (with 3 to 16 carbon atoms) with known Log P values (measurement of Log P values using retention times with linear interpolation between successive alkanones). Lambda-max-values were determined using UV-spectra from 200 nm to 400 nm and the peak values of the chromatographic signals.

[1] = method [a]: LC-UV, acidic range, 0.1% formic acid in water and acetonitrile as eluent

Compound	LogP (method [a])	also measured
COC(=O)C1(NC(=O)c2sc(Cl)c(Cl)c2C)CC(F)(F)C1 [I.143]	3.43^[a]	
Cc1c(C(=O)NC2CCCNC2=O)sc(Br)c1Br (centres unmarked) [I.022]		LogP [1]: 2.10^[a]
CCOC(=O)C1(NC(=O)c2sc(Cl)c(Cl)c2C)CN(C(=O)OC(C)(C)C)C1 [I.088]	4.15^[a]	
CCOC(=O)CN(O)C(=O)c1sc(Cl)c(Cl)c1C [I.116]	2.95^[a]	
Cc1c(C(=O)NC2(C(=O)OCC3CC3)CCC2)sc(Cl)c1Cl [I.155]	4.19^[a]	
COC(=O)[C@H](Cc1ccccc1)NC(=O)[C@H](CC(=O)O)NC(=O)c1sc(Br)c(Br)c1C [I.105]		LogP [1]: 3.11^[a]
CCSC(=O)C(CC(C)C)NC(=O)c1sc(Cl)c(Cl)c1C (centres unmarked) [I.041]	5.00^[a]	
CCOC(=O)CN(C(=O)c1sc(Cl)c(Cl)c1C)C1CC1 [I.168]	3.75^[a]	
COC(=O)CC1(NC(=O)c2sc(Cl)c(Cl)c2C)CC1 [I.082]	2.98^[a]	
COC(=O)C1(NC(=O)c2sc(Cl)c(Cl)c2C)CC(C)(C)C1 [I.142]	4.05^[a]	
Cc1c(C(=O)N[C@H]2CCCNC2=O)sc(Cl)c1Cl [I.162]		LogP [1]: 2.12^[a]
Cc1c(C(=O)NC(C(=O)OC(C)C)C2CC2)sc(Cl)c1Cl (centres unmarked) [I.154]	4.23^[a]	
Cc1c(C(=O)NC(C(=O)OCc2ccccc2)C2CC2)sc(Cl)c1Cl (centres unmarked) [I.140]	4.53^[a]	
COC(=O)C(C)(Cc1ccccc1)NC(=O)c1sc(Cl)c(Cl)c1C (centres unmarked) [I.166]	4.60^[a]	
COC(=O)[C@H](CCC(=O)O)NC(=O)c1sc(Cl)c(Cl)c1C [I.103]	2.39^[a]	
COC(=O)C1(NC(=O)c2sc(Cl)c(Cl)c2C)COC1 [I.144]	2.52^[a]	
Cc1c(C(=O)N[C@H]2CCSC2=O)sc(Cl)c1Cl [I.111]		LogP (method [b]: LC-UV, neutral range, 0.001 molar ammonium acetate solution in water and acetonitrile as eluent): 2.97^[b]
CNC(=O)C1(NC(=O)c2sc(Cl)c(Cl)c2C)CC1 [I.160]	2.12^[a]	
Cc1c(C(=O)NC(CCC(N)=O)C(=O)O)sc(Cl)c1Cl (centres unmarked) [I.069]	1.70^[a]	
CCOC(=O)C1(NC(=O)c2sc(Cl)c(Cl)c2C)CSC1 [I.146]	3.60^[a]	
Cc1c(C(=O)NC(C(=O)OC(C)(C)C)C2CC2)sc(Cl)c1Cl (centres unmarked) [I.161]	4.70^[a]	
COC(=O)C(NC(=O)c1sc(Cl)c(Cl)c1C)(C1CC1)C1CC1 [I.086]	3.94^[a]	
COC(=O)[C@H](CC(=O)OC(C)(C)C)NC(=O)c1sc(Cl)c(Cl)c1C [I.125]	4.17^[a]	

Compound	LogP (method [a])	also measured
COC(=O)C(NC(=O)c1sc(Cl)c(Cl)c1C)C(=O)OC [I.084]	3.01^[a]	
CCOC(=O)C(NC(=O)c1sc(Cl)c(Cl)c1C)C(=O)OCC [I.087]	3.81^[a]	
Cc1c(C(=O)NC2C(=O)SC2(C)C)sc(Br)c1Br (centres unmarked) [I.001]		LogP [1]: 3.99^[a]
CCNC(=O)SC[C@H](NC(=O)c1sc(Cl)c(Cl)c1C)C(=O)OC [I.120]	3.22^[a]	
Cc1c(C(=O)NC2(C#N)CCC(c3ccccc3)CC2)sc(Br)c1Br (centres unmarked) [I.170]		LogP [1]: 4.78^[a]
Cc1c(C(=O)NC2(C(=O)OC3CCCCC3)CCC2)sc(Cl)c1Cl [I.158]	5.08^[a]	
Cc1c(C(=O)NC2CCOC2=O)sc(Br)c1Br (centres unmarked) [I.021]		LogP [1]: 2.41^[a]
CCSC(=O)C(NC(=O)c1sc(Cl)c(Cl)c1C)C(C)C (centres unmarked) [I.042]	4.69^[a]	
Cc1c(C(=O)NC2(C#N)CCSCC2)sc(Br)c1Br [I.169]	3.59^[a]	
COC(=O)[C@H](CSC(=O)N(C)C)NC(=O)c1sc(Cl)c(Cl)c1C [I.119]	3.35^[a]	
COC(=O)CNC(=S)c1sc(Cl)c(Cl)c1C [I.113]	3.60^[a]	
Cc1c(C(=O)NC2(C(N)=S)CC2)sc(Cl)c1Cl [I.159]	2.54^[a]	
Cc1c(C(=O)NC2(C#N)CCC(C3CCCCC3)CC2)sc(Br)c1Br (centres unmarked) [I.151]		LogP [1]: 6.06^[a]
Cc1c(C(=O)NCC(=O)NC2(C(=O)O)CC2)sc(Br)c1Br [I.025]	1.95^[a]	
CNC(=S)SC[C@H](NC(=O)c1sc(Cl)c(Cl)c1C)C(=O)OC [I.121]	3.33^[a]	
Cc1c(C(=O)NC2CCSC2=O)sc(Cl)c1Cl (centres unmarked) [I.037]		LogP [1]: 2.86^[a]
Cc1c(C(=O)NC2(C(=O)OC(C)C)CCC2)sc(Cl)c1Cl [I.141]	4.05^[a]	
Cc1c(C(=O)NCC(N)=O)sc(Cl)c1Cl [I.062]	1.75^[a]	
Cc1c(C(=O)NCC(=O)O)sc(Br)c1Br [N-[(4,5-dibromo-3-methyl-2-thienyl)carbonyl]glycine]		chromatographic logP (reversed phase HPLC columns, preparation examples, method not indicated, read-out: Log P): 2.05
Cc1c(C(=S)NCC(=O)O)sc(Cl)c1Cl [I.172]	2.71^[a]	
COC(=O)[C@H](Cc1ccccc1)NC(=O)[C@H](CC(=O)O)NC(=O)c1sc(Cl)c(Cl)c1C [I.048]		LogP [1]: 3.09^[a]
Cc1c(C(=O)NC2(C(=O)OC(C)(C)C)CCC2)sc(Cl)c1Cl [I.156]	4.55^[a]	
Cc1c(C(=O)NC2CCCCNC2=O)sc(Cl)c1Cl (centres unmarked) [I.163]		LogP [1]: 2.67^[a]

Further lines, with some results ahead:

LogP (method [a])	Compound	also measured
3.17^[a]	CCOC(=O)C1(NC(=O)c2sc(Br)c(Br)c2C)CCOCC1 [I.139]	
3.50^[a]	Cc1c(C(=O)NC(C)(C#N)C2CC2)sc(Br)c1Br (centres unmarked) [I.152]	
4.38^[a]	CCOC(=O)C(C)NC(=S)c1sc(Br)c(Br)c1C (centres unmarked) [I.150]	
3.07^[a]	COC(=O)CC1(NC(=O)c2sc(Br)c(Br)c2C)CC1 [I.012]	
3.84^[a]	CCOC(=O)C(NC(=O)c1sc(Br)c(Br)c1C)C1CC1 (centres unmarked) [I.089]	
2.84^[a]	COC(=O)C1(NC(=O)c2sc(Br)c(Br)c2C)CCOC1 (centres unmarked) [I.004]	
4.44^[a]	CCOC(=O)C(C(C)C)N(C)C(=O)c1sc(Cl)c(Cl)c1C (centres unmarked) [I.059]	
3.99^[a]	CCOC(=O)C(CC(F)(F)F)NC(=O)c1sc(Br)c(Br)c1C (centres unmarked) [I.018]	
2.58^[a]	Cc1c(C(=O)NC(C(N)=O)C(C)C)sc(Br)c1Br (centres unmarked) [I.051]	
5.03^[a]	CCSC(=O)C(CC(C)C)NC(=O)c1sc(Br)c(Br)c1C (centres unmarked) [I.007]	
2.92^[a]	Cc1c(C(=O)NC(C(=O)NCC#N)C(C)C)sc(Br)c1Br (centres unmarked) [I.075]	
2.12^[a]	COC(=O)[C@H](CC(N)=O)NC(=O)c1sc(Br)c(Br)c1C [I.053]	
3.05^[a]	Cc1c(C(=S)NC(C)C(=O)O)sc(Br)c1Br (centres unmarked) [I.173]	
4.51^[a]	CCOC(=O)C(C(C)C)N(C)C(=O)c1sc(Br)c(Br)c1C (centres unmarked) [I.058]	
2.59^[a]	Cc1c(C(=O)NCC#N)sc(Br)c1Br [I.026]	
4.37^[a]	CCOC(=O)C1(C2(NC(=O)c3sc(Br)c(Br)c3C)CC2)CC1 [I.017]	
4.23^[a]	CCOC(=O)C1(NC(=O)c2sc(Br)c(Br)c2C)CN(C(=O)OC(C)(C)C)C1 [I.090]	
4.05^[a]	COC(=O)C(C)NC(=S)c1sc(Br)c(Br)c1C (centres unmarked) [I.149]	
4.80^[a]	CCOC(=O)C(NC(=O)c1sc(Br)c(Br)c1C)(OCC)C(C)C (centres unmarked) [I.112]	
3.71^[a]	CON(C)C(=O)C(NC(=O)c1sc(Br)c(Br)c1C)C(C)C (centres unmarked) [I.061]	
3.79^[a]	CCOC(=O)C1(CNC(=O)c2sc(Br)c(Br)c2C)CC1 [I.013]	
1.92^[a]	Cc1c(C(=O)NC(CO)C(=O)O)sc(Br)c1Br (centres unmarked) [I.071]	
2.07^[a]	Cc1c(C(=O)NC2(C(N)=O)CC2)sc(Br)c1Br [I.129]	
3.92^[a]	CCOC(=O)CNC(=S)c1sc(Cl)c(Cl)c1C [I.099]	
3.93^[a]	CCOC(=O)CN(OC)C(=O)c1sc(Br)c(Br)c1C [I.097]	
